The source of these data is US7605280B2, “Anthraquinone and its derivatives” (Biostatus Limited, priority 1998, dated 2009).

One data set relates to viable HL60 cells. The data set is described as follows: CLSM analysis of nuclear fluorescence in viable cells. The class given is cell-based, human. The following applies: 10 μM for 1 h. An excerpt:
The system used was a Leica TCS 4D (LaserTechnik Gmbh, Germany) scanner coupled to a Leitz DM R microscope and operating with an Ominchrome argon/krypton laser. The laser provided emission lines at 488, 568 and 647 nm with variable power. Coverslip cultures were washed briefly in PBS, mounted in inverted positions on glass slides, the coverslips being supported at the edges by a piping of petroleum jelly to prevent the cells from being compressed. The slides were examined immediately using ×100 or ×40 oil immersion objective lenses with mid-range pinhole and photomultiplier gain settings. Excitation/emission wavelengths for DRAQ5, fluorescein and rhodamine 123 were 647 nm/>665 nm, 488 nm/>515 nm and 488 nm/>590 nm respectively. Gain settings were adjusted such that the most fluorescent drug-treated sample gave pixel intensities just below saturation. The black level/offset was adjusted to give effectively zero background (<4 for pixel value) after 16× line noise filtration of images for untreated controls. […]
Thus, FIG. 2h to k show simultaneous CLSM capture of transmission (panels h and j) and the corresponding far red/low infra-red fluorescence (panels i and […] respectively) images of viable HL60 cells exposed to either 10 μM DRAQ5 or 10 μM DRAQ5N for 1 h. • 1. […]

A further data set in a line: Solubility. The class given is physicochemical.

On to `CN(C)CCNc1ccc(O)c2c1C(=O)c1c(O)ccc(NCCN(C)C)c1C2=O` [DRAQ5], for which the “integrated nuclear fluorescence intensity per nucleus section, DRAQ5 relative to DRAQ5N-treated cells” value with viable HL60 cells is given as “approximately 10 fold”. Also, in “Solubility”, the solubility entry is reported as “soluble in biologically compatible solvents including water”.
